Measurements from paper PMC11783400, “Assessment of Potential Drug–Drug Interactions for Novel Oral Melanocortin‐1 Receptor Agonist Dersimelagon” (Pharmacology Research & Perspectives, 2025).

Legend:
OCT2 = target: T1, OCT2 (Homo sapiens, UniProt O15244); test: uptake inhibition in HEK293 cells expressing the transporter; format: cell-based
T1 construct: gene SLC22A2; expressed in HEK293 cells
T1 sequence (O15244 1-555): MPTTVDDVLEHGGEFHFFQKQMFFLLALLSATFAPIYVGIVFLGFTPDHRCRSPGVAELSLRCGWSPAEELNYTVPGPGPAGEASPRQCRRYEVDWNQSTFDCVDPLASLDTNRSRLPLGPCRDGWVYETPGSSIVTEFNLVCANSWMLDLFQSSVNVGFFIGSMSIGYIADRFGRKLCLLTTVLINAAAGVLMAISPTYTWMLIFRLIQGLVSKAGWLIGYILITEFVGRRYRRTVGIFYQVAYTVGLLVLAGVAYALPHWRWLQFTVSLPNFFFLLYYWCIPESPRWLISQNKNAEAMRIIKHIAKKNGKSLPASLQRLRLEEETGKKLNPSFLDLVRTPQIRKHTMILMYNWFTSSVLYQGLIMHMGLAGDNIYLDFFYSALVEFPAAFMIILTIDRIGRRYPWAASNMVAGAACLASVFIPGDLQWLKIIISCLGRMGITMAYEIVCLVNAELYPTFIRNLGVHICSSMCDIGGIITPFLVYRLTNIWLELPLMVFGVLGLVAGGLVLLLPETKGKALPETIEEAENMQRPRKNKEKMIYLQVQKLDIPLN
From the text: uptake inhibition in HEK293 cells expressing the transporter on OCT2

CYP2C8 = target: T2, CYP2C8 (Homo sapiens, UniProt P10632); test: CYP activity inhibition in human liver microsomes; format: biochemical; settings: read-out: IC50 (μM) / Direct inhibition
T2 construct: native enzyme in human liver microsomes
T2 sequence (P10632 1-490): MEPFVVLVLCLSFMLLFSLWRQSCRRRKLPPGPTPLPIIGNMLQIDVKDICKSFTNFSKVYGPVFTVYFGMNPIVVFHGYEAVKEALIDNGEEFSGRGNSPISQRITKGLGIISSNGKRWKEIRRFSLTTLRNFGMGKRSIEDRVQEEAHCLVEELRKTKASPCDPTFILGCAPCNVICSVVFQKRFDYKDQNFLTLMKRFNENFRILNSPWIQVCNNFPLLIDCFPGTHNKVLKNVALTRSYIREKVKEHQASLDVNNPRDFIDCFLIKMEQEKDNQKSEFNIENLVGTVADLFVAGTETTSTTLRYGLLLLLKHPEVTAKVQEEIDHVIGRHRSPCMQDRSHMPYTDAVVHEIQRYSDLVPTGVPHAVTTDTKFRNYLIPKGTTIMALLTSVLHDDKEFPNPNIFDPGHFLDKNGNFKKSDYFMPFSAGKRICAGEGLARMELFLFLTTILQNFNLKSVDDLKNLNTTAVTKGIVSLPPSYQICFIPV
From the text: CYP activity inhibition in human liver microsomes on CYP2C8

MATE1 = target: T3, MATE1 (Homo sapiens, UniProt Q96FL8); test: uptake inhibition in HEK293 cells expressing the transporter; format: cell-based
T3 construct: gene SLC47A1; expressed in HEK293 cells
T3 sequence (Q96FL8 1-570): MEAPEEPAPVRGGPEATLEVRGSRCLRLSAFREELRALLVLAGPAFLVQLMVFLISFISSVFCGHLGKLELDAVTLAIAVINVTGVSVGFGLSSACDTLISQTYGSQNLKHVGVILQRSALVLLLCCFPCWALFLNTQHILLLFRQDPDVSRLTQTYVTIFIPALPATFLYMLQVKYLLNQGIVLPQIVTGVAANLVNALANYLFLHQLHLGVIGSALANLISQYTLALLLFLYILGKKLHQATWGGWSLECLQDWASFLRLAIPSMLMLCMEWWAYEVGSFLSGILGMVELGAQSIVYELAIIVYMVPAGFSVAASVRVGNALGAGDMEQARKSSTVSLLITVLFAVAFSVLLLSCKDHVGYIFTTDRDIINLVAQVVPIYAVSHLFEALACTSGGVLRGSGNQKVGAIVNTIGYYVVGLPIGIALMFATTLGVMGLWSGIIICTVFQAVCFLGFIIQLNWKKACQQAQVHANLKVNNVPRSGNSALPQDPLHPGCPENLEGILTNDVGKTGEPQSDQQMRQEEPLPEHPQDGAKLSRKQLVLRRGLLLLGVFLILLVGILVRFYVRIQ
From the text: uptake inhibition in HEK293 cells expressing the transporter on MATE1

UGT2B7 = target: T4, UGT2B7 (Homo sapiens, UniProt P16662); test: glucuronidation inhibition in human liver microsomes; format: biochemical; settings: substrate 3'-azido-3'-deoxythymidine; direct inhibition
T4 construct: native enzyme in human liver microsomes
T4 sequence (P16662 24-529): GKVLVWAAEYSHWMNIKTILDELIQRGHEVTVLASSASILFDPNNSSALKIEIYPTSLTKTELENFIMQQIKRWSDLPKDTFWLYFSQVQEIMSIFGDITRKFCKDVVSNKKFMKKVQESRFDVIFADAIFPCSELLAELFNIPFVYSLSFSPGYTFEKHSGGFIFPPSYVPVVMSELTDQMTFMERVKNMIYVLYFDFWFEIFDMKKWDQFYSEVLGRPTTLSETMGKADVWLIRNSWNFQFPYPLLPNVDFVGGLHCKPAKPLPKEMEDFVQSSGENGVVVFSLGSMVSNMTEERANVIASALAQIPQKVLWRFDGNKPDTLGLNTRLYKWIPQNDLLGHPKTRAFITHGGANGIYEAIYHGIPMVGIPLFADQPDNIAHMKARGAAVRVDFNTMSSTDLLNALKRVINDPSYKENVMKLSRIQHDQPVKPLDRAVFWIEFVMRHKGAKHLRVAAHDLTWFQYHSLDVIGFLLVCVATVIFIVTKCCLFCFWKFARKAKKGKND
From the text: glucuronidation inhibition in human liver microsomes on UGT2B7

OAT3 = target: T5, OAT3 (Homo sapiens, UniProt Q8TCC7); test: uptake inhibition in HEK293 cells expressing the transporter; format: cell-based
T5 construct: gene SLC22A8; expressed in HEK293 cells
T5 sequence (Q8TCC7 1-542): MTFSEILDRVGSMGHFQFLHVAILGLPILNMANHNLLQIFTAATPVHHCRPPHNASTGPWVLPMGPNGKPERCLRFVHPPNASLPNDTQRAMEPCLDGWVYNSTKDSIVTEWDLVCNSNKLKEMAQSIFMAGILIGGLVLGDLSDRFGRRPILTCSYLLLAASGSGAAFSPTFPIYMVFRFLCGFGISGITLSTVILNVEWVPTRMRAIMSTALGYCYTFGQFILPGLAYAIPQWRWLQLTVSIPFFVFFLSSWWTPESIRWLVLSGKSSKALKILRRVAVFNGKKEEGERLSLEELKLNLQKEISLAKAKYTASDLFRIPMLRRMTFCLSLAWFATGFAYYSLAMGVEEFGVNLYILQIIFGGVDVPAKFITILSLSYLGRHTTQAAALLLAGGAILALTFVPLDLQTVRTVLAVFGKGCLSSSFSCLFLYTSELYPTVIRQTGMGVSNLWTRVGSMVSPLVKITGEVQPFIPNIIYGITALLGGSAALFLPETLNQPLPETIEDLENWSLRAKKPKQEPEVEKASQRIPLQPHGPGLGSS
From the text: uptake inhibition in HEK293 cells expressing the transporter on OAT3

IC50 (OCT2): > 28.7 µM
IC50 (CYP2C8): 24.2 µM
IC50 (MATE1): 5.64 µM
IC50 (UGT2B7): > 50 µM
IC50 (OAT3): 0.227 µM
SMILES: COC[C@H]1CN(C(=O)[C@]2(F)CN(C3CCCC3)C[C@H]2c2ccc(OC)cc2)C[C@@H]1c1ccc(C(F)(F)F)cc1N1CCC(C(=O)O)CC1 [dersimelagon]
